Reference: US20250057973A1, “Exosomes for treating glioblastoma multiforme and manufacturing method thereof” (China Medical University, priority 2023, published 2025)

Legend:
GBM cell line U87 = assay: Cell death rate of GBM cells in the blood-brain barrier cell culture model; type: cell-based; details: U87, BBB model
Description: The blood-brain barrier cell culture model 10 includes a first culture area 11 and a second culture area 12, with multiple perforations 13 connecting the first culture area 11 and the second culture area 12. The first culture area 11 and the second culture area 12 are filled with a hydrogel A. The GBM cell line U87 is cultured in the hydrogel A of the first culture area 11, while endothelial cells 20, pericytes 30, and astrocytes 40 are sequentially arranged in the second culture area 12. Wherein the resistance value of the blood-brain barrier cell culture model 10 is set to 214462 Ω.cm^2 to establish an impedance environment of the blood-brain barrier. In subsequent experiments, the drug carrier is given to the second culture area 12 of the blood-brain barrier cell culture model 10, and experimental analysis is performed on the GBM cell line U87 in the first culture area 11 to confirm the efficacy and therapeutic effect of the drug carrier crossing from the second culture area 12 to the first culture area 11. […]

GBM cell line (U87) = assay: Animal model of glioblastoma multiforme (U87 implanted into mouse brain): body weight, survival, tumor growth; type: in vivo, mice
Description: To corroborate the actual effect of the drug carrier in living organisms, in a further experiment, 10^6 cells of the GBM cell line (U87) were implanted into the brains of mice to establish an animal model of glioblastoma multiforme. Seven days after the implantation surgery, the mice were administered the chemotherapy drug and/or drug carrier via intravenous injection, and imaging was used to confirm the growth status of the chemotherapy drug and/or drug carrier and the GBM cell line in the mouse brain. […]
FIGS. 10D and 10E further analyze the fluorescence expression (intensity (10^6)) of the GBM cell line in the brain area of the experimental mice in each group, and present the tissue morphology through hematoxylin-eosin staining (H&E staining) technique in the tissue section staining images to analyze the growth status of the GBM cells. […]

With `Cn1nnc2c(C(N)=O)ncn2c1=O` [TMZ, Temodal] the “cell death rate (%) of the GBM cells” value (GBM cell line U87; 1st to 3rd day overall) was “significant cell death rate”, the “cell death rate (%) of the GBM cells, third day” value (GBM cell line U87; by the third day) was “tended to moderate” and the “survival rate of the experimental mice” value (GBM cell line (U87); U87 brain-implanted mice, intravenous injection) was “increased”. The “growth of the GBM cell line in brain (fluorescence intensity)” value (GBM cell line (U87); compared with Clt and αHLA-G EV groups) was “inhibited to some extent”.
